Measured values as given in the supplement of paper PMC4862054.

How the values were obtained:
Settings in all cases: incubation time: 72 h
BT-474 [1] = experiment: normalised response (% of control), CellTox Green; higher = less cell death (100 = DMSO, 0 = benzethonium chloride kill control)
In short: (§1)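 Breast cancer cell lines were exposed for 72 h in 384-well plates to compound at 5 concentrations, 10-fold apart, covering a 10,000-fold range fixed for each compound. Plates were read for CellTox Green fluorescence and CellTiter-Glo luminescence and normalised to 0.1 % DMSO (100) and a positive kill control (0). Each value is the normalised signal at one concentration of the series.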

HCC1599 [2] = experiment: as above
In short: as §1

CAL-85-1 [3] = experiment: as above
In short: as §1

HCC1143 [4] = experiment: as above
In short: as §1

MDA-MB-453 [5] = experiment: as above
In short: as §1

CAL-51 [6] = experiment: as above
In short: as §1

CAL-148 [7] = experiment: as above
In short: as §1

MDA-MB-468 [8] = experiment: as above
In short: as §1

MCF-10A [9] = experiment: as above
In short: as §1

MDA-MB-436 [10] = experiment: as above
In short: as §1

MDA-MB-231 [11] = experiment: as above
In short: as §1

MFM-223 [12] = experiment: as above
In short: as §1

HDQ-P1 [13] = experiment: as above
In short: as §1

CAL-120 [14] = experiment: as above
In short: as §1

DU-4475 [15] = experiment: as above
In short: as §1

BT-549 [16] = experiment: as above
In short: as §1

BT-474 [17] = experiment: normalised response (% of control), CellTiter-Glo; higher = more viable cells (100 = DMSO, 0 = benzethonium chloride kill control)
Method: (§2)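 DSRT, 72 h incubation, CellTox Green / CellTiter-Glo readout. Signal is normalised to DMSO and benzethonium chloride controls. Value is the normalised response at dose 3.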

HCC1599 [18] = experiment: as above
Method: as §2

HCC1937 [19] = experiment: as above
Method: as §2

CAL-85-1 [20] = experiment: as above
Method: as §2

HCC1143 [21] = experiment: as above
Method: as §2

MDA-MB-453 [22] = experiment: as above
Method: as §2

CAL-51 [23] = experiment: as above
Method: as §2

CAL-148 [24] = experiment: as above
Method: as §2

MDA-MB-468 [25] = experiment: as above
Method: as §2

MCF-10A [26] = experiment: as above
Method: as §2

SK-BR-3 = experiment: as above
Method: as §2

MDA-MB-436 [27] = experiment: as above
Method: as §2

Hs578T [28] = experiment: as above
Method: as §2

MDA-MB-231 [29] = experiment: as above
Method: as §2

MFM-223 [30] = experiment: as above
Method: as §2

HDQ-P1 [31] = experiment: as above
Method: as §2

CAL-120 [32] = experiment: as above
Method: as §2

DU-4475 [33] = experiment: as above
Method: as §2

BT-549 [34] = experiment: as above
Method: as §2

HCC1937 [35] = experiment: normalised response (% of control), CellTox Green; higher = less cell death (100 = DMSO, 0 = benzethonium chloride kill control)
In short: as §1

Hs578T [36] = experiment: as above
In short: as §1

Row | Structure (SMILES) | normalised response (BT-474 [1]) [%] | normalised response (HCC1599 [2]) [%] | normalised response (CAL-85-1 [3]) [%] | normalised response (HCC1143 [4]) [%] | normalised response (MDA-MB-453 [5]) [%] | normalised response (CAL-51 [6]) [%] | normalised response (CAL-148 [7]) [%] | normalised response (MDA-MB-468 [8]) [%] | normalised response (MCF-10A [9]) [%] | normalised response (MDA-MB-436 [10]) [%] | normalised response (MDA-MB-231 [11]) [%] | normalised response (MFM-223 [12]) [%] | normalised response (HDQ-P1 [13]) [%] | normalised response (CAL-120 [14]) [%] | normalised response (DU-4475 [15]) [%] | normalised response (BT-549 [16]) [%] | normalised response (BT-474 [17]) [%] | normalised response (HCC1599 [18]) [%] | normalised response (HCC1937 [19]) [%] | normalised response (CAL-85-1 [20]) [%] | normalised response (HCC1143 [21]) [%] | normalised response (MDA-MB-453 [22]) [%] | normalised response (CAL-51 [23]) [%] | normalised response (CAL-148 [24]) [%] | normalised response (MDA-MB-468 [25]) [%] | normalised response (MCF-10A [26]) [%] | normalised response (SK-BR-3) [%] | normalised response (MDA-MB-436 [27]) [%] | normalised response (Hs578T [28]) [%] | normalised response (MDA-MB-231 [29]) [%] | normalised response (MFM-223 [30]) [%] | normalised response (HDQ-P1 [31]) [%] | normalised response (CAL-120 [32]) [%] | normalised response (DU-4475 [33]) [%] | normalised response (BT-549 [34]) [%] | normalised response (HCC1937 [35]) [%] | normalised response (Hs578T [36]) [%]
1 | COc1cc2ncnc(Nc3ccc(F)c(Cl)c3)c2cc1NC(=O)/C=C/CN1CCCCC1 [Dacomitinib] (10 nM) | 98.8 | 88.8 | 90.5 | 80 | 98 | 105 | 101 | 68.7 | 108 | 103 | 103 | 100 | 50 | 105 | 104 | 102 | 100 | 99.7 | 98.1 | 84.2 | 102 | 96 | 91 | 103 | 78.8 | 56.4 | 77.3 | 100 | 108 | 106 | 103 | 77 | 100 | 104 | 105 | – | –
2 | CC(C)Cn1cnc2c(N)nc3ccccc3c21 [Imiquimod] (25 nM) | 102 | 103 | 98.1 | 81.4 | 61.1 | 90.4 | – | – | 91.9 | 101 | 100 | 105 | 74.9 | 96.9 | 102 | 87.2 | 104 | 101 | 94.8 | 99.9 | 107 | 97.4 | 81.8 | 110 | 104 | 103 | 106 | 104 | 107 | 102 | 107 | 101 | 101 | 107 | 103 | 102 | 51.6
3 | Cc1ccc(C(=O)N(CCCN)[C@@H](c2oc3cc(Cl)ccc3c(=O)c2Cc2ccccc2)C(C)C)cc1 (1 nM) | 101 | 88.1 | 113 | – | 104 | 74.1 | 93.5 | – | 107 | 108 | 102 | 100 | 100 | 83.7 | 103 | 93.7 | 95 | 104 | 94.3 | 107 | 103 | 91.4 | 65.8 | 84.9 | 93.9 | 97 | 88.2 | 105 | 94.8 | 103 | 91.4 | 105 | 102 | 96.6 | 101 | 97 | 104
4 | N.N.[Cl][Pt][Cl] [Cisplatin] (10 nM) | 104 | 102 | 112 | 109 | 106 | 94.8 | 103 | – | 115 | – | 114 | 105 | 109 | 108 | 114 | 115 | 102 | 104 | 97.7 | 94.7 | 103 | 90.5 | 90.6 | 82.8 | 85.3 | 106 | 93.5 | 103 | 96.4 | 103 | 99.8 | 101 | 108 | 96.6 | 107 | 90.6 | 78.4
5 | Cc1ccc(C(=O)Nc2ccc(CN3CCN(C)CC3)c(C(F)(F)F)c2)cc1C#Cc1cnc2cccnn12 [Ponatinib] (10 nM) | 100 | 101 | 103 | 69.8 | 105 | 99.5 | 95.3 | 93.2 | 99.1 | 73.4 | – | 77.6 | – | 102 | 101 | 94.4 | 105 | 89.4 | 94.3 | 99.5 | 99.5 | 105 | 106 | 106 | 106 | 111 | 106 | 109 | 99.1 | 99.6 | 88.4 | 105 | 106 | 101 | 104 | – | –
6 | CNCc1ccc(-c2[nH]c3cc(F)cc4c3c2CCNC4=O)cc1 [Rucaparib] (100 nM) | 95.5 | 94.4 | 97.5 | 104 | 102 | 91.6 | 97.4 | – | – | 83.3 | 87 | 73.3 | 104 | 98.9 | 95.7 | 71.6 | 93 | 109 | 99.2 | 99.1 | 99.3 | 91.3 | 84.1 | 86 | 104 | 93.6 | 90 | 90.6 | 99.8 | 99.2 | 88.8 | 98.3 | 92.8 | 97.2 | 106 | – | 108
7 | Clc1ccc(Nc2nnc(Cc3ccncc3)c3ccccc23)cc1 [Vatalanib] (100 nM) | 99.6 | 106 | 77.6 | 117 | 64 | 110 | 107 | – | 103 | – | 102 | 103 | 109 | 102 | 101 | 105 | 103 | 109 | 103 | 103 | 106 | 106 | 89.3 | 112 | 108 | 111 | 102 | 111 | 106 | 105 | 107 | 101 | 99.1 | 105 | 109 | 115 | 111
